Structures are written as SMILES. A value given as a limit tells only on which side of the number the result lay.

The subject of data set [1] is Neutrophil. Nature of the data set: Cytotoxicity against C57BL/6NCr mouse Neutrophil assessed as reduction in cell viability at 20 uM followed by photo-irradiation with 20 mW/cm^2 light by tryptan blue dye based hemacytometer. Format: toxicity.
Data set [2] concerns Staphylococcus aureus. Nature of the data set: Photodynamic antibacterial activity against Methicillin-resistant Staphylococcus aureus assessed as reduction in bacterial colony forming unit at 8 uM followed by photo-irradiation with 30 J/cm^2 light. Format: functional.
Data set [3] has as its system Staphylococcus aureus. Nature of the data set: Photodynamic antibacterial activity against Methicillin-resistant Staphylococcus aureus assessed as reduction in bacterial growth followed by photo-irradiation with 25 J/cm^2 light for 15 mins by crystal violet staining assay. Format: functional. Also noted: scale not given: the % may be the effect or the level left. The note with it: 0.25 h.

The test system of data set [4] is Staphylococcus aureus. Nature of the data set: Photodynamic antibacterial activity against Methicillin-resistant Staphylococcus aureus assessed as reduction in bacterial growth at 120 uM followed by photo-irradiation with blue light for 10 to 120 min. Format: functional. Also noted: scale not given: the % may be the effect or the level left. The note with it: time 10-120 min.

In data set [5] the test system is Staphylococcus aureus. Nature of the data set: Photodynamic antibacterial activity against Methicillin-resistant Staphylococcus aureus assessed as reduction in bacterial growth at 30 uM followed by photo-irradiation with violet light for 10 to 120 min. Format: functional. The arrangement: scale not given: the % may be the effect or the level left. To be noted: time 10-120 min.

Data set [6] concerns Staphylococcus aureus. Nature of the data set: Photodynamic antibacterial activity against Methicillin-resistant Staphylococcus aureus assessed as reduction in bacterial growth at 250 microg/ml followed by photo-irradiation with 100 J/cm^2 light for 100 sec. To be noted: dose 250 µg/ml, 100 s. Also noted: scale not given: the % may be the effect or the level left. Format: functional.

Data set [7] in a line: Photodynamic antibacterial activity against mix of Methicillin-resistant Staphylococcus aureus-Pseudomonas aeruginosa in maxillary sinus model assessed as reduction in bacterial colony forming unit at 0.03 % followed by photo-irradiation with 150 mW/cm^2 light by spectrophotometry. Format: functional.
A short description of data set [8]: Photodynamic antibacterial activity against mix of Methicillin-resistant Staphylococcus aureus-Pseudomonas aeruginosa assessed as reduction in bacterial colony forming unit at 300 microg/ml followed by photo-irradiation with 664 nm for 400 sec. Format: functional. To be noted: dose 300 µg/ml, 0.1111 h.
The subject of data set [9] is Staphylococcus aureus. Nature of the data set: Photodynamic antibacterial activity against Methicillin-resistant Staphylococcus aureus assessed as reduction in bacterial colony forming unit at 50 microg/ml followed by photo-irradiation with 163.8 J/cm^2 for 10 to 30 mins. Format: functional. To be noted: dose 50 µg/ml; time 10-30 min.
Data set [10] is described as follows: Cytotoxicity against C57BL/6NCr mouse Neutrophil assessed as cell viability followed by photo-irradiation with 20 mW/cm^2 light by tryptan blue dye based hemacytometer. Format: toxicity. The note with it: mouse neutrophils, read-out: Activity.
In data set [11] the test system is Staphylococcus aureus. Nature of the data set: Photodynamic antibacterial activity against Methicillin-resistant Staphylococcus aureus assessed as reduction in bacterial colony forming unit at 3 uM followed by photo-irradiation with 30 J/cm^2 for 30 mins. Format: functional. To be noted: 0.5 h.
The subject of data set [12] is Staphylococcus aureus. Nature of the data set: Photodynamic antibacterial activity against Methicillin-resistant Staphylococcus aureus assessed as reduction in bacterial colony forming unit at 500 microg/ml followed by photo-irradiation with 664 nm for 400 sec. Format: functional. To be noted: dose 500 µg/ml, 0.1111 h.
Data set [13] is described as follows: Photodynamic antibacterial activity against mix of Methicillin-resistant Staphylococcus aureus-Pseudomonas aeruginosa in maxillary sinus model assessed as reduction in bacterial growth at 0.03 % followed by photo-irradiation with 150 mW/cm^2 light by spectrophotometry. Format: functional. Also noted: scale not given: the % may be the effect or the level left.

Data set [14] is described as follows: Photodynamic antibacterial activity against mix of Methicillin-resistant Staphylococcus aureus-Pseudomonas aeruginosa assessed as reduction in bacterial colony forming unit at 500 microg/ml followed by photo-irradiation with 664 nm for 400 sec. To be noted: dose 500 µg/ml, 0.1111 h. Format: functional.
Data set [15] in a line: Photodynamic antibacterial activity against mix of Methicillin-resistant Staphylococcus aureus-Pseudomonas aeruginosa in endotracheal tube model assessed as reduction in growth unit at 500 microg/ml followed by photo-irradiation with 108 J/cm^2 light for 12 mins. Format: functional. Also noted: scale not given: the % may be the effect or the level left. To be noted: dose 500 µg/ml, 0.2 h.

Data set [16] has as its system Staphylococcus aureus. Nature of the data set: Photodynamic antibacterial activity against Methicillin-resistant Staphylococcus aureus assessed as reduction in bacterial colony forming unit at 300 microg/ml followed by photo-irradiation with 664 nm for 400 sec. Format: functional. To be noted: dose 300 µg/ml, 0.1111 h.
Data set [17] has as its system Staphylococcus aureus. Nature of the data set: Photodynamic antibacterial activity against Methicillin-resistant Staphylococcus aureus infected C57 mouse superficial wound model assessed as fold reduction in bacterial growth at 100 microg/ml,po for 15 mins followed by photo-irradiation with 360 J/cm^2 light for 30 mins. Format: functional. To be noted: dose 100 µg/ml, time 45 min, 0.75 h.

For data set [18], the system named is Staphylococcus aureus. Nature of the data set: Photodynamic antibacterial activity against Methicillin-resistant Staphylococcus aureus infected C57 mouse excision wound model assessed as fold reduction in bacterial growth at 100 microg/ml,po for 15 mins followed by photo-irradiation with 360 J/cm^2 light for 30 mins. Format: functional. The note with it: dose 100 µg/ml, time 45 min, 0.75 h.

Data set [19] has as its system Staphylococcus aureus. Nature of the data set: Photodynamic antibacterial activity against Methicillin-resistant Staphylococcus aureus in bovine bone assessed as reduction in bacterial colony forming unit at 1.5 g/L followed by photo-irradiation with 20.1 J/cm^2 light for 24 hrs by fluorescence spectroscopy. Format: functional.
Data set [20] concerns Staphylococcus aureus. Nature of the data set: Photodynamic antibacterial activity against Methicillin-resistant Staphylococcus aureus infected Balb/C mouse assessed as reduction in lymph node bacterial colony forming unit at 1.5 %,ID followed by photo-irradiation with 54 J/cm^2 light measured upto 72 hrs. Format: functional.
Data set [21] deals with Staphylococcus aureus. Nature of the data set: Photodynamic antibacterial activity against Methicillin-resistant Staphylococcus aureus clinical isolate 1 assessed as reduction in bacterial growth at 0.01 % followed by photo-irradiation with 5.4 J/cm^2 light for 30 min by microscopic analysis. Format: functional. Also noted: scale not given: the % may be the effect or the level left. To be noted: 0.5 h.

Data set [22] deals with Staphylococcus aureus. Nature of the data set: Photodynamic antibacterial activity against Methicillin-resistant Staphylococcus aureus ATCC 43300 assessed as reduction in bacterial growth at 0.01 % followed by photo-irradiation with 412 nm at 5.4 J/cm^2 light for 10 min by microscopic analysis. Format: functional. Also noted: scale not given: the % may be the effect or the level left.

Data set [23] relates to Staphylococcus aureus. Nature of the data set: Photodynamic antibacterial activity against Methicillin-resistant Staphylococcus aureus clinical isolate 2 assessed as reduction in bacterial growth at 0.01 % followed by photo-irradiation with 5.4 J/cm^2 light for 30 min by microscopic analysis. Also noted: scale not given: the % may be the effect or the level left. To be noted: 0.5 h. Format: functional.

Data set [24] relates to Staphylococcus aureus. Nature of the data set: Photodynamic antibacterial activity against Methicillin-resistant Staphylococcus aureus assessed as reduction in bacterial growth at 0.01 % followed by photo-irradiation with 5405 J/cm^2 light for 30 min by microscopic analysis. Also noted: scale not given: the % may be the effect or the level left. Format: functional. The note with it: 0.5 h.

The test system of data set [25] is Staphylococcus aureus. Nature of the data set: Photodynamic antibacterial activity against Methicillin-resistant Staphylococcus aureus ATCC 43300 assessed as reduction in bacterial growth at 0.01 % followed by photo-irradiation with 450 nm at 5.4 J/cm^2 light for 10 min by microscopic analysis. Format: functional. Also noted: scale not given: the % may be the effect or the level left.

For `CC/N=c1/cc2sc3cc(NCC)c(C)cc3nc-2cc1C.Cl`, the Activity in [1] is given as below 70%.
In the case of `Cc1cc(O)c2c3c1-c1c(C)cc(O)c4c1C1c5c(c(O)cc(O)c5-c5c(O)cc(O)c(c5C31)C2=O)C4=O` (stereo not given), the Activity in [2] is given as above 6 log10CFU; in data set [3] it was 92.2%.
Turning to `Cc1cc2nc3c(=O)[nH]c(=O)nc-3n(C[C@H](O)[C@H](O)[C@H](O)COP(=O)(O)O)c2cc1C` [RIBOFLAVIN 5'-PHOSPHATE], the results for the Activity in data set [4] and in data set [5] were 95.2% and 97%, respectively.
Regarding `CN(C)c1ccc2nc3ccc(N(C)C)cc3[s+]c2c1.[Cl-]` [METHYLENE BLUE ANHYDROUS], the Activity in data set [6] is above 99%; in data set [7], 5 log10CFU; in data set [8], 6.7 log10CFU; in data set [9], 2.2 log10CFU; in data set [11], 7 log10CFU; in data set [12] it was 7.39 log10CFU. Also, the Activity in data set [13] was above 99.99%; in data set [14] it was 7.39 log10CFU; in [15], above 99.9%; in data set [16] it was 6.7 log10CFU. Moreover, the viability in [10] was above 80%. Moreover, the “fold change (FC)” value in [17] came out at 14; in data set [18], 25.
Consider `COc1cc(/C=C/C(=O)CC(=O)/C=C/c2ccc(O)c(OC)c2)ccc1O` [CURCUMIN], for which the Activity was 3.6 log10CFU in data set [19] and above 5 log10CFU in data set [20].
As to `Cc1cc2c(cc1C)N(C[C@H](O)C[C@H](O)CO)C1NC(=O)NC(=O)C1=N2` (stereo not given in full), the Activity in [21] came to 98%; in data set [22], 99%; in data set [23] it was 100%; in data set [24], 90%; in [25] it was 98%.
